Patent US20210260066A1, “METHOD OF USING MEK INHIBITOR TO PREVENT RADIATION INDUCED FIBROSIS” (THOMAS JEFFERSON UNIVERSITY, priority 2018, published 2021)

Experiments:
[1] = tested on: rat peritoneal mesothelial cells; test: TGF-β induced mesothelial-mesenchymal transition (MMT) of rat peritoneal mesothelial cells; format: cell-based
Procedure: Isolated mesothelial cells were incubated under control conditions without either TGF-β or trametinib, with TGF-β or trametinib alone, or with both TGF-β and trametinib for five days.
These increases in gene expression of phosphor-Erk1/2, FNEDA, αSMA and p-SMAD2 (linker) were blocked by as low a concentration of trametinib as 2 nM.
The experiments in this study were approved by the Institutional Animal Care and Use Committee at Thomas Jefferson University, and were performed in accordance with the National Institutes of Health guidelines for the care and handling of laboratory animals. […]
RPMCs were lysed in ice-cold modified RIPA buffer with protease inhibitor cocktail (50 mM/L Tris-HCl, 1% NP-40, 0.25% Na-deoxycholate, 150 mM/L NaCl, 1 mM/L EDTA, 1 mmol/L phenylmethyl sulfonyl fluoride, 1 mM/L sodium orthovanadate, 1 mM/L NaF, pH 7.4). Equivalent amounts of homogenate (50 μg/well), determined by Coomassie blue assay, were separated by sodium dodecyl sulfate polyacrylamide gel electrophoresis (SDS-PAGE), transferred to either nitrocellulose or PVDF membranes, and detected by SuperSignal West Femto or Pico chemiluminescence.

C57BL/6 mice = conditions: mouse, in vivo
Description: C57BL/6 mice were used to develop a consistent model of intra-abdominal adhesion formation. Mouse cecums were gently abraded to promote adhesion formation which were subsequently analyzed histologically and immunochemically to characterize the expression of pro-fibrotic genes including (αSMA and FNEDA isoform, both of which were examined immunohistochemically and by quantitative polymerase chain reaction (qPCR). Trichrome staining was used to assess collagen deposition, a major protein component found in the extracellular matrix (ECM) at adhesion sites. Consistent intra-abdominal adhesions in mice were achieved by gentle cecal abrasion with mortality rates of <10%. Adhesions were seen as early as post-operative day 1 with extensive adhesions being formed and vascularized by day 5. Expression of the FNEDA isoform first and subsequently αSMA and collagen occurred during adhesion maturation.
Equal numbers of male and female C57BL/6 mice (18-25 g, 8-10 weeks of age, Jackson Laboratories, Bar Harbor, Me.) were used in initial experiments while only male mice were used in the drug escalation studies because they sustained greater accumulations of fibrotic tissue (data not shown). […]

mouse lung fibroblasts = test: Pro-fibrotic gene expression (qPCR) in bleomycin-treated mouse lung fibroblasts; format: cell-based; conditions: bleomycin alone vs vehicle control
Description: Indeed, FIGS. 1A, 1B, and 1C depict the ability of trametinib to modulate the expression of pro-fibrotic genes in mouse lung fibroblasts. The three graphs represent expression of (type I collagen and FNEDA) and αSMA. Lung fibroblasts isolated form mouse lungs were placed in cell culture and treated either with saline (control) or bleomycin dissolved in saline and 3 different concentrations of trametinib (2.5, 5 and 10 nmolar) dissolved in DMSO. After treatment with the drug, RNA was extracted and quantified by qPCR. mRNAs for type I collagen (Collal), the FNEDA and αSMA are shown. Control values in FIGS. 1 A, B, and C were set to 100%.

| Molecule | Concentration blocking the increases of phosphor-Erk1/2, FNEDA, αSMA and p-SMAD2 (linker) ([1]; TGF-β-treated cells) | Effect of trametinib alone on mesothelial cells (toxicity, appearance) ([1]; trametinib alone, five days) | Wound healing of abdominal muscles and skin at the laparotomy site (C57BL/6 mice) | Increase in expression of Collal mRNA (mouse lung fibroblasts) | Increase in expression of FNEDA mRNA (mouse lung fibroblasts) | Increase in expression of αSMA mRNA (mouse lung fibroblasts) |
| --- | --- | --- | --- | --- | --- | --- |
| CC(=O)Nc1cccc(-n2c(=O)n(C3CC3)c(=O)c3c(Nc4ccc(I)cc4F)n(C)c(=O)c(C)c32)c1 [trametinib] | ≤ 2 nM | no effect and no apparent toxic effects | no impairment | – | – | – |
| bleomycin | – | – | – | more than 200% | ~150% | more than 200% |
